Patent publication US10662203B2, “Pyrido[2,3-b]indole compounds for the treatment and prophylaxis of bacterial infection” (Hoffmann-La Roche Inc., priority 2017, dated 2020)

Assays:
Experiment in all cases: 50% growth inhibitory concentration (IC50) determination assay
Type in all cases: cell-based
[1] = system: K. pneumoniae (ATCC10031); settings: Klebsiella pneumoniae, Iso-Sensitest broth, 0.098 = detection limit
Procedure: (§1) Stock compounds in DMSO were serially two-fold diluted (range from 50 to 0.097 μM final concentration) in 384 wells microtiter plates and inoculated with 49 μL the bacterial suspension in Iso-Sensitest broth medium to have a final cell concentration of ˜5×10^5 CFU/mL in a final volume/well of 50 μL/well. Microtiter plates were incubated at 35±2° C. Bacterial cell growth was determined with the measurement of optical density at λ=600 nm each 20 minutes over a time course of 16 h. […] GP-6 (Example 4.131 disclosed in WO 2012/125746 A1) was used as the reference compound in Table 6-8. […] The data of IC50 over S. aureus (ATCC29213), K. pneumoniae (ATCC10031), and A. baumannii (ATCC17978) are illustrated in Table 6.

S. aureus (ATCC29213) = settings: Staphylococcus aureus, Iso-Sensitest broth, 0.098 = detection limit
Procedure: as §1

A. baumannii (ATCC17978) = settings: Acinetobacter baumannii, ATCC17978, A. baumannii ATCC17978; Iso-Sensitest broth; 0.098 = detection limit
Procedure: as §1

SMILES | IC50 [1] | IC50 (S. aureus (ATCC29213)) | IC50 (A. baumannii (ATCC17978))
CNc1cc(F)c(F)c2c1[nH]c1ncc(-c3cnc4c(c3)c(=O)c(C(=O)O)cn4NC)c(N3C[C@H]4OCCN(C)[C@H]4C3)c12 [Example 3.13A] | < 0.098 µM | < 0.098 µM | 0.152 µM
CNc1cc(F)c(F)c2c1[nH]c1ncc(-c3cnc4c(c3)c(=O)c(C(=O)O)cn4NC)c(N3C[C@@H]4OCCN(C)[C@@H]4C3)c12 [Example 3.13B] | < 0.098 µM | < 0.098 µM | 0.16 µM
CNc1cc(F)c(F)c2c1[nH]c1ncc(-c3cnc4c(c3)c(=O)c(C(=O)O)cn4C)c(N3C[C@H]4OCCN(C)[C@H]4C3)c12 [Example 3.14A] | < 0.098 µM | < 0.098 µM | 0.075 µM
CNc1cc(F)c(F)c2c1[nH]c1ncc(-c3cnc4c(c3)c(=O)c(C(=O)O)cn4C)c(N3C[C@@H]4OCCN(C)[C@@H]4C3)c12 [Example 3.14B] | < 0.098 µM | < 0.098 µM | 0.103 µM
CNc1cc(Cl)cc2c1[nH]c1ncc(-c3cnc4c(c3)c(=O)c(C(=O)O)cn4C)c(N3C[C@H]4CCN(C)[C@H]4C3)c12 [Example 3.15A] | < 0.098 µM | < 0.098 µM | 0.208 µM
CNc1cc(Cl)cc2c1[nH]c1ncc(-c3cnc4c(c3)c(=O)c(C(=O)O)cn4C)c(N3C[C@@H]4CCN(C)[C@@H]4C3)c12 [Example 3.15B] | < 0.098 µM | < 0.098 µM | 0.094 µM
CNc1cc(F)c(F)c2c1[nH]c1ncc(-c3cnc4c(c3)c(=O)c(C(=O)O)cn4C)c(N3CC[C@@]4(CN(C)CCO4)C3)c12 [Example 3.16A] | < 0.098 µM | < 0.098 µM | 0.161 µM
CNc1cc(F)c(F)c2c1[nH]c1ncc(-c3cnc4c(c3)c(=O)c(C(=O)O)cn4C)c(N3CC[C@]4(CN(C)CCO4)C3)c12 [Example 3.16B] | < 0.098 µM | < 0.098 µM | 0.19 µM
CNc1cc(F)cc2c1[nH]c1ncc(-c3cnc4c(c3)c(=O)c(C(=O)O)cn4C)c(N3C[C@H]4OCCN(C)[C@H]4C3)c12 [Example 3.22A] | < 0.098 µM | < 0.098 µM | 0.363 µM
CNc1cc(F)cc2c1[nH]c1ncc(-c3cnc4c(c3)c(=O)c(C(=O)O)cn4C)c(N3C[C@@H]4OCCN(C)[C@@H]4C3)c12 [Example 3.22B] | < 0.098 µM | < 0.098 µM | 0.256 µM
CNc1cc(F)c(F)c2c1[nH]c1ncc(-c3cnc4c(c3)c(=O)c(C(=O)O)cn4C)c(N3C[C@@H]4OCCN(C)[C@H]4C3)c12 [Example 3.24A] | < 0.098 µM | < 0.098 µM | 0.315 µM
CNc1cc(F)c(F)c2c1[nH]c1ncc(-c3cnc4c(c3)c(=O)c(C(=O)O)cn4C)c(N3C[C@@H]4[C@@H](C3)OCCN4C)c12 [Example 3.24B] | < 0.098 µM | < 0.098 µM | 0.371 µM
CNc1cc(F)c(F)c2c1[nH]c1ncc(-c3cnc4c(c3)c(=O)c(C(=O)O)cn4C)c(N3CCO[C@H](CN(C)C)C3)c12 [Example 4.02A, (R)-6-(4-(2-((dimethylamino)methyl)morpholino)-5,6-difluoro-8-(methylamino)-9H-pyrido[2,3-b]indol-3-yl)-1-methyl-4-oxo-1,4-dihydro-1,8-naphthyridine-3-carboxylic acid] | < 0.098 µM | 0.197 µM | 0.437 µM
CNc1cc(F)c(F)c2c1[nH]c1ncc(-c3cnc4c(c3)c(=O)c(C(=O)O)cn4C)c(N3CCO[C@@H](CN(C)C)C3)c12 [Example 4.02B, (S)-6-(4-(2-((dimethylamino)methyl)morpholino)-5,6-difluoro-8-(methylamino)-9H-pyrido[2,3-b]indol-3-yl)-1-methyl-4-oxo-1,4-dihydro-1,8-naphthyridine-3-carboxylic acid] | < 0.098 µM | 0.207 µM | 0.408 µM

Results, then the compound that gave them:

IC50 [1] | IC50 (S. aureus (ATCC29213)) | IC50 (A. baumannii (ATCC17978)) | SMILES
< 0.098 µM | < 0.098 µM | 0.308 µM | CNc1cc(F)c(F)c2c1[nH]c1ncc(-c3cnc4c(c3)c(=O)c(C(=O)O)cn4NC)c(N3CCC4(CCN4C)C3)c12 (stereo not drawn) [Example 1.238]
< 0.098 µM | < 0.098 µM | 0.151 µM | CNc1cc(F)c(F)c2c1[nH]c1ncc(-c3cnc4c(c3)c(=O)c(C(=O)O)cn4NC)c(N3CCC4(CCCN4C)C3)c12 (stereo not drawn) [Example 1.240]
0.14 µM | < 0.098 µM | 0.476 µM | CNc1cc(F)c(F)c2c1[nH]c1ncc(-c3cnc4c(c3)c(=O)c(C(=O)O)cn4[C@@H](C)CO)c(N3CCO[C@@H](C)C3)c12 [Example 1.250]
< 0.098 µM | < 0.098 µM | 0.215 µM | CNc1cc(F)c(F)c2c1[nH]c1ncc(-c3cnc4c(c3)c(=O)c(C(=O)O)cn4C)c(N3CC4[C@H](CCN4CCO)C3)c12 (stereo partly drawn) [Example 1.261]
< 0.098 µM | < 0.098 µM | 0.048 µM | CNc1cc(F)c(Cl)c2c1[nH]c1ncc(-c3cnc4c(c3)c(=O)c(C(=O)O)cn4C)c(N3CC[C@H]4CN(C)CC43)c12 (stereo partly drawn) [Example 1.270]
< 0.098 µM | < 0.098 µM | 0.48 µM | CNc1cc(Cl)cc2c1[nH]c1ncc(-c3cnc4c(c3)c(=O)c(C(=O)O)cn4C)c(N3CC4C(N(C)C)CO[C@@H]4C3)c12 (stereo partly drawn) [Example 1.277]
< 0.098 µM | < 0.098 µM | 0.111 µM | CNc1cc(F)c(F)c2c1[nH]c1ncc(-c3cnc4c(c3)c(=O)c(C(=O)O)cn4NC)c(N3CC4[C@H](CC[C@H]4N(C)C)C3)c12 (stereo partly drawn) [Example 1.284]
0.167 µM | < 0.098 µM | 0.992 µM | CNc1cc(F)c(F)c2c1[nH]c1ncc(-c3cnc4c(c3)c(=O)c(C(=O)O)cn4CCN(C)C)c(N3CCC(F)(F)C3)c12 [Example 2.02]
< 0.098 µM | < 0.098 µM | 0.562 µM | CNc1cc(F)c(F)c2c1[nH]c1ncc(-c3cnc4c(c3)c(=O)c(C(=O)O)cn4C3CCN(C)C3)c(N3CCC(F)(F)C3)c12 (stereo not drawn) [Example 2.03]
0.275 µM | < 0.098 µM | 0.745 µM | CNc1cc(F)c(F)c2c1[nH]c1ncc(-c3cnc4c(c3)c(=O)c(C(=O)O)cn4NCC(F)(F)F)c(N(C)C)c12 [Example 5.03, 6-(4-(dimethylamino)-5,6-difluoro-8-(methylamino)-9H-pyrido[2,3-b]indol-3-yl)-4-oxo-1-((2,2,2-trifluoroethyl)amino)-1,4-dihydro-1,8-naphthyridine-3-carboxylic acid]
0.118 µM | < 0.098 µM | 0.257 µM | CNc1cc(F)c(F)c2c1[nH]c1ncc(-c3cnc4c(c3)c(=O)c(C(=O)O)cn4C)c(N3CCC4(C[C@@H]4N(C)C)C3)c12 (stereo partly drawn) [Example 6.01, 6-(4-(trans-2-(Dimethylamino)-5-azaspiro[2.4]heptan-5-yl)-5,6-difluoro-8-(methylamino)-9H-pyrido[2,3-b]indol-3-yl)-1-methyl-4-oxo-1,4-dihydro-1,8-naphthyridine-3-carboxylic acid]
0.166 µM | < 0.098 µM | 0.389 µM | CNc1cc(F)c(F)c2c1[nH]c1ncc(-c3cnc4c(c3)c(=O)c(C(=O)O)cn4C)c(N3CCC4(C[C@H]4N(C)C)C3)c12 (stereo partly drawn) [Example 6.02, 6-(4-cis-(2-(dimethylamino)-5-azaspiro[2.4]heptan-5-yl)-5,6-difluoro-8-(methylamino)-9H-pyrido[2,3-b]indol-3-yl)-1-methyl-4-oxo-1,4-dihydro-1,8-naphthyridine-3-carboxylic acid]
